This note sets out measurements from patent US7790742B2, “Substituted 4-phenyltetrahydroisoquinolines, pharmaceutical compositions thereof, methods for their preparation and therapeutic use” (Sanofi-Aventis Deutschland GmbH, priority 2004, dated 2010).

Data set [1] concerns the target T1, NHE3 (Homo sapiens, UniProt P48764).
T1 construct: host or cells: cells, not specified
T1 sequence (P48764 26-834): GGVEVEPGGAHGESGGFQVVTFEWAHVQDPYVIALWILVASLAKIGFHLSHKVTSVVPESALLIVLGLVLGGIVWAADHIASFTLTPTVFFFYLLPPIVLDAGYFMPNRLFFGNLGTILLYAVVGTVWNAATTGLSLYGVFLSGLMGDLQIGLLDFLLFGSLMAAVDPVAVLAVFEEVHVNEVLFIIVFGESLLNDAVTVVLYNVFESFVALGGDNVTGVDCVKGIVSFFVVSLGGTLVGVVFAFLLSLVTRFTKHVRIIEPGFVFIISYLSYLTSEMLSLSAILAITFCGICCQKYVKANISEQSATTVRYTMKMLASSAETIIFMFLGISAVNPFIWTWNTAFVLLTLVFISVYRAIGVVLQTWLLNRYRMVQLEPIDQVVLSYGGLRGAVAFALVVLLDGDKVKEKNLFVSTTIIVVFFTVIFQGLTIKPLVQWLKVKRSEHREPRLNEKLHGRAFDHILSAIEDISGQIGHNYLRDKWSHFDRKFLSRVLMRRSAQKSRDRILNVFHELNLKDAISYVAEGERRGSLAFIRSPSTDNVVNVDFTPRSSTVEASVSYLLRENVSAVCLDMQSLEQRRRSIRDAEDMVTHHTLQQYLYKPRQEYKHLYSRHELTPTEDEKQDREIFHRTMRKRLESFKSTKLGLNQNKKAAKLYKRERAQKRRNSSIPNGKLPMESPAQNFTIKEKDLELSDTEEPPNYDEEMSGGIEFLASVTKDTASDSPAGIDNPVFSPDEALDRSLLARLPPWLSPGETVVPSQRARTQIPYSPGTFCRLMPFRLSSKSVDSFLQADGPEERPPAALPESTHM
Kind of data set: Determination of the NHE-inhibitory effect (recovery of intracellular pH after acidification, BCECF). The following applies: BCECF fluorescence, NHE subtype not given. It is filed as cell-based. Here is the method:
[drawing 82] was obtained in analogy to the method indicated in Example 16 from 6,8-dichloro-2-methyl-4(R)-[2N-(2-ethoxy-3,4-dioxocyclobuten-1-yl)amino]-phenyl-1,2,3,4-tetrahydroisoquinoline (Example 6) and methylamine. Crystalline solid, m.p. 265° C. Pharmacological Data: Assay: Determination of the NHE-Inhibitory Effect
In this assay, the recovery of the intracellular pH (pHj) after an acidification which occurs even under bicarbonate-free conditions with functional NHE was determined. To this end, the pHj was determined using the pH-sensitive fluorescent dye BCECF (calbiochem, the precursor BCECF-AM was employed). The cells were initially loaded with BCECF. The BCECF fluorescence was determined in a ratio fluorescence spectrometer (Photon Technology International, South Brunswick, N.J., USA) with excitation wavelengths of 505 and 440 nm and an emission wavelength of 535 nm and converted into the pHj using calibration plots. The cells had been incubated in NH4Cl buffer (pH 7.4) for the BCECF loading (NH4Cl buffer: 115 mM NaCl, 20 mM NH4Cl, 5 mM KCl, 1 mM CaCl2, 1 mM MgSO4, 20 mM Hepes, 5 mM glucose, 1 mg/ml BSA; a pH of 7.4 was adjusted with 1 M NaOH). The intracellular acidification was induced by adding 975 μl of an NH4Cl-free buffer (see below) to 25 μl aliquots of the cells incubated in NH4Cl buffer. The subsequent rate of pH recovery was recorded for two minutes with NHE1, five minutes with NHE2 and three minutes with NHE3. To calculate the inhibitory power of the tested substances, the cells were initially investigated in buffers with which there was complete or absolutely no pH recovery. For complete pH recovery (100%), the cells were incubated in Na^+-containing buffer (133.8 mM NaCl, 4.7 mM KCl, 1.25 mM CaCl2, 1.25 mM MgCl2, 0.97 mM Na2HPO4, 0.23 mM NaH2PO4, 5 mM Hepes, 5 mM glucose, a pH of 7.0 was adjusted with 1 M NaOH). To determine the 0% value, the cells were incubated in an Na^+-free buffer (133.8 mM choline chloride, 4.7 mM KCl, 1.25 mM CaCl2, 1.25 mM MgCl2, 0.97 mM K2HPO4, 0.23 mM KH2PO4, 5 mM Hepes, 5 mM glucose, a pH of 7.0 was adjusted with 1 M NaOH). The substances to be tested were made up in the Na^+-containing buffer. The recovery of the intracellular pH at each tested concentration of a substance was expressed as a percentage of the maximum recovery. The IC50 of the respective substance for the individual NHE subtypes was calculated from the percentages of pH recovery using the Sigma Plot program.

pIC50: −log10 of the molar value. Where only a bound is given, the exact number is not on record here.

By pIC50 is commonly meant the IC50 on a negative log10 scale, so that one unit is a factor of ten. A low value points to a large IC50. Broadly, the melting point is the temperature, or range, at which the solid turns liquid. On to `CCCN(C)c1c(Nc2ccccc2[C@@H]2CN(C)Cc3c(Cl)cc(Cl)cc32)c(=O)c1=O` [Example 37], for which the melting point lay in the range of 236 to 240 °C. Also, in data set [1], the negative logarithm of the IC50 (pIC50) was 6.07. In the same order, the values of `CCN(CC)c1c(Nc2cccc([C@@H]3CN(C)Cc4c(Cl)cc(Cl)cc43)c2)c(=O)c1=O` [Example 30] are 125 to 135 °C and 6.85. In the same order, the values of `CN1Cc2c(Cl)cc(Cl)cc2[C@H](c2ccc(Nc3c(N4CCCC4)c(=O)c3=O)cc2)C1` [Example 36, 6,8-dichloro-2-methyl-4(S)-[4N-(2-N-pyrrolidino-3,4-dioxocyclobuten-1-yl)amino]phenyl-1,2,3,4-tetrahydroisoquinoline] are 264 to 270 °C and 6.64.

Turning to `CC(C)N(C)c1c(Nc2ccccc2[C@@H]2CN(C)Cc3c(Cl)cc(Cl)cc32)c(=O)c1=O` [Example 42], the melting point was 210 to 214 °C. In data set [1], the pIC50 is 6.82. In turn, `CCCN(CC1CC1)c1c(Nc2ccc(C3CN(C)Cc4c(Cl)cc(Cl)cc43)cc2)c(=O)c1=O` (stereo not shown) [Example 29, 6,8-dichloro-2-methyl-4-[4N-(2-(N-cyclopropylmethyl-N-propylamino)-3,4-dioxocyclobuten-1-yl)amino]phenyl-1,2,3,4-tetrahydro-isoquinoline] yielded a melting point of 134 to 144 °C. The same compound showed a pIC50 in data set [1] of 5.15. Compound `CN1Cc2c(Cl)cc(Cl)cc2[C@H](c2cccc(Nc3c(N4CCCC4)c(=O)c3=O)c2)C1` [Example 34, 6,8-dichloro-2-methyl-4(S)-[3N-(2-N-pyrrolidino-3,4-dioxocyclobuten-1-yl)amino]phenyl-1,2,3,4-tetrahydroisoquinoline] returned a melting point of 138 to 143 °C. Also, the negative-log IC50 (pIC50) in data set [1] was 7.28. Turning to `COCCN(C)c1c(Nc2ccc(C3CN(C)Cc4c(Cl)cc(Cl)cc43)cc2)c(=O)c1=O` (stereo not shown) [Example 26], the melting point lay in the range of 206 to 210 °C. Moreover, the pIC50 in data set [1] is 5.77. In data set [1], `CN1Cc2c(Cl)cc(Cl)cc2[C@H](c2cccc(Nc3c(N(C)C)c(=O)c3=O)c2)C1` [Example 22, 6,8-dichloro-2-methyl-4(S)-[3N-(2-dimethylamino-3,4-dioxocyclobuten-1-yl)amino]phenyl-1,2,3,4-tetrahydroisoquinoline] gave a pIC50 of 7.01. Turning to `CC(C)N(C)c1c(Nc2ccc([C@@H]3CN(C)Cc4c(Cl)cc(Cl)cc43)cc2)c(=O)c1=O` [Example 28, 6,8-dichloro-2-methyl-4(S)-[4N-(2-(N-isopropyl-N-methylamino)-3,4-dioxocylcobuten-1-yl)amino]phenyl-1,2,3,4-tetrahydroisoquinoline], the melting point was 165 to 175 °C (dec.). This compound gave a pIC50 in data set [1] of 6.59. On to `CN1Cc2c(Cl)cc(Cl)cc2[C@H](c2ccccc2Nc2c(N3CCCC3)c(=O)c2=O)C1` [Example 41, 6,8-dichloro-2-methyl-4(R)-[2N-(2-N-pyrrolidino-3,4-dioxocyclobuten-1-yl)amino]phenyl-1,2,3,4-tetrahydroisoquinoline], for which the melting point is 220 to 224 °C. In addition, in data set [1], the pIC50 is 6.96. In turn, `CCN(CC)c1c(Nc2ccccc2[C@@H]2CN(C)Cc3c(Cl)cc(Cl)cc32)c(=O)c1=O` [Example 39, 6,8-dichloro-2-methyl-4(R)-[2N-(2-diethylamino-3,4-dioxocyclobuten-1-yl)amino]phenyl-1,2,3,4-tetrahydroisoquinoline] gave a melting point of 246 to 250 °C. Also, in data set [1], the pIC50 was 5.82. `CC(C)N(C)c1c(Nc2cccc([C@@H]3CN(C)Cc4c(Cl)cc(Cl)cc43)c2)c(=O)c1=O` [Example 31]: the melting point was in the range of 135 to 150 °C. Moreover, the negative-log IC50 (pIC50) in data set [1] is 6.89. `CN1Cc2c(Cl)cc(Cl)cc2C(c2ccc(Nc3c(N(C)C)c(=O)c3=O)cc2)C1` (stereo not shown) [Example 18, 6,8-dichloro-2-methyl-4-[4N-(2-dimethylamino-3,4-dioxocyclobuten-1-yl)amino]phenyl-1,2,3,4-tetrahydroisoquinoline] registered a melting point of 208 to 214 °C. For the same compound, the negative-log IC50 (pIC50) in data set [1] is 6.59.

In the case of `CCN(CC)c1c(Nc2ccc([C@@H]3CN(C)Cc4c(Cl)cc(Cl)cc43)cc2)c(=O)c1=O` [Example 27, 6,8-dichloro-2-methyl-4(S)-[4N-(2-diethylamino-3,4-dioxocyclobuten-1-yl)amino]phenyl-1,2,3,4-tetrahydroisoquinoline], the melting point lay in the range of 220 to 225 °C. The compound further had a pIC50 in data set [1] of 6.68. For `CCN(c1c(Nc2ccc([C@@H]3CN(C)Cc4c(Cl)cc(Cl)cc43)cc2)c(=O)c1=O)C(C)C` [Example 32], the melting point lay within 160 to 190 °C. In addition, the negative logarithm of the IC50 (pIC50) in data set [1] was 6.17. Take `CCCN(CCC)c1c(Nc2ccccc2[C@@H]2CN(C)Cc3c(Cl)cc(Cl)cc32)c(=O)c1=O` [Example 40]: the melting point lay in the range of 190 to 194 °C. Also, the pIC50 in data set [1] is 6.62. On the same counts, the results for `CCN(CC)c1c(Nc2ccc(C3CN(C)Cc4c(Cl)cc(Cl)cc43)cc2)c(=O)c1=O` (stereo not shown) [Example 19, 6,8-dichloro-2-methyl-4-[4N-(2-diethylamino-3,4-dioxocyclobuten-1-yl)amino]phenyl-1,2,3,4-tetrahydroisoquinoline] are 275 to 280 °C and 5.94.

`CCCN(C)c1c(Nc2cccc([C@@H]3CN(C)Cc4c(Cl)cc(Cl)cc43)c2)c(=O)c1=O` [Example 33] showed a melting point of 135 to 140 °C. For the same compound, the pIC50 in data set [1] was 7.51. Regarding `CC(C)CN(C)c1c(Nc2ccc(C3CN(C)Cc4c(Cl)cc(Cl)cc43)cc2)c(=O)c1=O` (stereo not shown) [Example 25, 6,8-dichloro-2-methyl-4-[4N-(2-(N-isobutyl-N-methylamino)-3,4-dioxocyclobuten-1-yl)amino]phenyl-1,2,3,4-tetrahydroisoquinoline], the melting point was over 310 °C. In data set [1], this compound had a pIC50 of 5.55. On the same counts, the results for `CN1Cc2c(Cl)cc(Cl)cc2C(c2ccc(Nc3c(N(C)Cc4ccccc4)c(=O)c3=O)cc2)C1` (stereo not shown) [Example 38] are 158 to 162 °C and 5.10. Compound `CCCN(CCC)c1c(Nc2ccc(C3CN(C)Cc4c(Cl)cc(Cl)cc43)cc2)c(=O)c1=O` (stereo not shown) [Example 24, 6,8-dichloro-2-methyl-4-[4N-(2-dipropylamino-3,4-dioxocyclobuten-1-yl)amino]phenyl-1,2,3,4-tetrahydroisoquinoline] had a pIC50 in data set [1] of 5.60.
